Measurements reported in ChEMBL document CHEMBL1136655, “Synthesis of imidazopyridines and purines as potent inhibitors of leukotriene A4 hydrolase” (Bioorg Med Chem Lett, 2003).
pIC50: −log10 of the molar value.

Tests used:
[1] = system: Mus musculus; assay: Ex vivo inhibition of LTB4 production in mouse whole blood following 10 mg/kg p.o. administration.; format: functional; conditions: route oral
[2] = target: T1, Leukotriene A-4 hydrolase (Homo sapiens, UniProt P09960); assay: In vitro inhibition of recombinant human leukotriene A4 hydrolase.
T1 sequence (P09960 whole entry): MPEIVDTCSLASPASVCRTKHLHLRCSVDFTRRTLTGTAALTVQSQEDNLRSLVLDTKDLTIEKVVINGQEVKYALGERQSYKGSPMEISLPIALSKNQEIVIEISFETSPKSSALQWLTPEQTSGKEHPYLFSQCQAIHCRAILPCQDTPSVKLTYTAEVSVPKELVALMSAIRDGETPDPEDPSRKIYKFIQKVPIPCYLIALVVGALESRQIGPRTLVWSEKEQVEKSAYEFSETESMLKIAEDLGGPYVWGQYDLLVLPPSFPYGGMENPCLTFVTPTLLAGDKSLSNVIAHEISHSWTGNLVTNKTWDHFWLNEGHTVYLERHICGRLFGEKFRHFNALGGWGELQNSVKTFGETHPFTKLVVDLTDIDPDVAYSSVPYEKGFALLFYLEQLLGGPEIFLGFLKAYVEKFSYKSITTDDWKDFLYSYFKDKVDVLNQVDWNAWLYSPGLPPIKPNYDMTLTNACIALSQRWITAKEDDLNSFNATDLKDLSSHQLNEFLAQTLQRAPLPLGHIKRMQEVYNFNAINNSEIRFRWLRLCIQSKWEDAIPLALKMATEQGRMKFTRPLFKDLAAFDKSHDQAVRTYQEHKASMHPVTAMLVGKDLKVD

[3] = organism: Homo sapiens; assay: Inhibition of LTB4 production from whole human blood.; format: functional

SMILES | pIC50 [3] | inhibition in vivo at 10 mg/kg [1] | pIC50 [2]
N#Cc1nccc2c1ncn2CCOc1ccc(Cc2ccccc2)cc1 | 7.00 | 84% | 7.51
c1ccc(Cc2ccc(OCCn3cnc4cccnc43)cc2)cc1 | 5.04 | – | < 5.52
c1ccc(Cc2ccc(OCCn3cnc4ccccc43)cc2)cc1 | 4.88 | 46% | –
N#Cc1ccc2c(ncn2CCOc2ccc(Cc3ccccc3)cc2)n1 | 6.82 | 21% | 9.10
c1ccc(Cc2ccc(OCCn3cnc4cnccc43)cc2)cc1 | 6.48 | 64% | –

Continued, in another order:

pIC50 [3] | SMILES | inhibition in vivo at 10 mg/kg [1] | pIC50 [2]
6.16 | c1ccc(Cc2ccc(OCCn3cccc4ncnc3-4)cc2)cc1 | – | –
6.48 | c1ccc(Cc2ccc(OCCn3cnc4ncccc43)cc2)cc1 | 18% | –
6.03 | Oc1ccc2ncn(CCOc3ccc(Cc4ccccc4)cc3)c2n1 | 72% | 6.30
